The source of these data is patent US11291719B2, “Methods and compositions for modulating Akt3” (Augusta University Research Institute, Inc., priority 2016, dated 2022).

For one test, the target named is T1, Akt3 pS472 (Homo sapiens, UniProt Q9Y243).
T1 construct: expression of Akt1 pS473, Akt2 pS474, Akt3 pS472, and Akt pan 5473,474,472 in A2780 cells; endogenous in cells; host or cells: A2780 human ovarian carcinoma cells
Kind of test: Akt3 phosphorylation in A2780 cells. The conditions noted are these: human ovarian carcinoma cells (A2780). It is filed as cell-based. An excerpt: FIG. 10 is a bar graph showing the effect of mJJ64A on the expression of Akt1 pS473, Akt2 pS474, Akt3 pS472, and Akt pan 5473,474,472 in A2780 cells compared to control. The Y axis represents integrated density value.

The test system of another test is TC-1 tumor. Kind of test: TC-1 tumor growth under mJJ64A. The class given is in vivo, mouse. The note with it: compared to untreated controls. An excerpt:
FIG. 18A is an illustration showing the experimental method and treatment schematic for TC-1 tumor experiments. FIG. 18B is a line graph showing tumor volume (cm^3) over time (days) for untreated (▴) and mJJ64A treated (♦) TC1 tumor bearing mice.

T1 sequence (Q9Y243 whole entry): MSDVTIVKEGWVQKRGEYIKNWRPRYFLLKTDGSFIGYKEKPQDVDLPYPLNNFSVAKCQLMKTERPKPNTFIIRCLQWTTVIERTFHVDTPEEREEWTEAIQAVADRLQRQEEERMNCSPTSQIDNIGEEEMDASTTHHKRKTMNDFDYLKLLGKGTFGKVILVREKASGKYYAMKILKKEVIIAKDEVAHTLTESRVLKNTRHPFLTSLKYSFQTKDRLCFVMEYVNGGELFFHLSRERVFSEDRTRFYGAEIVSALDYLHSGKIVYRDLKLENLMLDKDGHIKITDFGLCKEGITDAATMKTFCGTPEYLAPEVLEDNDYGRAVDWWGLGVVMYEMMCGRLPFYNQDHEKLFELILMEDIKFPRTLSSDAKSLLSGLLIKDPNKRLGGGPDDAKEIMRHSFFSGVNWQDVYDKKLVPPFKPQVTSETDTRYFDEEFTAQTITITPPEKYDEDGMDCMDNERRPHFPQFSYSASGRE

As for `N#Cc1ccc2nccc(Nc3ccc(C(=O)Nc4ccc(Nc5ccncc5)cc4)cc3)c2c1` [Compound 2], the “phosphorylation of Akt3” value at Akt3 pS472 is given as “significantly increases”. In addition, in the test with TC-1 tumor, the TC-1 tumor growth entry is given as “significantly increased”.
